Reference: patent publication US20160075765A1, “MODIFIED COLLAGEN MOLECULES” (AGENCY FOR SCIENCE, TECHNOLOGY AND RESEARCH, priority 2013, published 2016)

Tests used:
[1] = Thermal unfolding (thermal denaturation) followed by circular dichroism at 225 nm; assay type: physicochemical; conditions: CD, minimum of the derivative of fraction folded plot; 0.2 mM peptide, 10 mM sodium phosphate pH 7.0; not preheated; mixtures at ratio 1:2
Protocol: (§1) CD spectra were recorded on an Aviv 410 circular dichroism spectrometer equipped with temperature controller. Peptide solutions at concentrations of 200 μM were used. All sample solutions made in 10 mM sodium phosphate-dibasic buffer (pH 7.0) were equilibrated for 24 hr at 4° C. before CD measurements. A Quartz Cell of 1 mm path length was used. For wavelength scan, temperature was increased to the desired points at a rate of 10° C./hr and the sample solutions were equilibrated for 10 min before the measurements. Spectra were recorded from 260 to 190 nm and mean residue ellipticity [θ] was calculated as follows;
(§2) θ represents the ellipticity in millidegrees, N the number of amino acid residues, c the molar concentration in mol·L^−1, and l the cell path length in cm. Thermal denaturation curves were obtained at final peptide concentrations of 0.2 mM and molar ellipticity at 225 nm was measured as a function of temperature in a range of 5 to 80° C. at a heating rate of 10° C./hr. All annealed samples were heated for 30 min at 85° C. and then cooled down to 4° C. at a rate of 1° C./min followed by equilibration for 24 hr at 4° C. before the measurements. The melting temperatures were determined from the minimum points in the first derivative of the melting curves.

[2] = CD wavelength scan, helical conformation at a set temperature; assay type: physicochemical; conditions: 200 μM peptide, pH 7.0
Protocol: as §1, §2

Substance	Tm (melting temperature of triple helix) [1]	conformation by CD at 25° C. [2]
Ac-(PXG)2-(PKG)4-(PXG)2-C(O)NH2 [Peptide 2]	No triple helix	random coil conformations
Ac-(PXG)2-(PRG)4-(PXG)2-C(O)NH2 [Peptide 3]	39.4 °C	retained the PPII helical structure
